Measured values: patent publication US20110038835A1, “ANILIDES AND ANALOGS AS RHO KINASE INHIBITORS” (The Scripps Research Institute, priority 2007, published 2011)
pIC50: −log10 of the molar value.

Columns and labels:
N2a cells = assay: Neurite length assay (N2a cell assay); type: cell-based; conditions: Mus musculus, compound 1 h, neurite retraction induced by 5 uM LPA
Experimental: Neurite Length Assay (N2a, Cell Assay).
N2a cells are maintained in DMEM/FBS at 37 C and 5% CO2. For the experiment the cells were plated on a poly-D-lysine coated 96-well tissue culture plate. After attachment, cell differentiation was induced for 2 days by addition of 10 uM retinoic acid. Cells were treated for 1 h with a dilution of compounds in 0.3% DMSO final concentration before neurite retraction was induced by 5 uM LPA. Cells were stained for tubulin and nuclei and images were acquired on a INCell 1000 workstation. Images were analyzed using the developer toolbox and neurite length was quantitated.

A7r5 cells = assay: Myosin light chain double phosphorylation assay (ppMLC cell assay); type: cell-based; conditions: inhibitor 1 h, 10 μM LPA for 10 min
Experimental: Myosin Light Chain Double Phosphorylation Assays (ppMLC Cell Assay).
A7r5 cells were plated at 5000 cells/well in a 96 well Packard View Plate (Perkin Elmer) in DMEM +10% FBS. After attachment overnight, cells were serum starved for 4 h and treated with inhibitor in 0.25% DMSO final concentration for 1 h at 37° C. Cells were then treated with 10 μM lysophosphatitic acid (LPA) for 10 min. Following treatment, cells were immediately fixed with 4% paraformaldehyde for 30 minutes. After a brief wash in 0.1 M glycine, cells were permeablized in 0.2% Triton X for 10 minutes. Cells were then washed once in PBS and blocked in Li-COR blocking buffer (Li-COR Biosciences) for 1 h at 25 C. Cells were probed for either phosphorylated myosin light chain 20 (55 ng/mL), total myosin light chain (525 ng/mL) or anti-bovine α-tubulin (1 μg/mL), and incubated overnight at 4° C. Following three washes, cells were probed with goat-anti-rabbit or goat-anti-mouse IR800 (2 μg/mL in LI-COR block +0.025% Tween) for 1 h at 25° C. Nuclei were stained with TO-PRO-3 iodide (642/661) (1:4000) for 20 min, washed twice in PBS/0.05% Tween and read with an Odyssey Infrared Imaging System (LI-COR Biosciences).

ROCK-II (1-543) = ROCK-II (1-543) (UniProt Q62868); assay: Enzymatic Rho kinase assay (Kinase-Glo, S6-peptide phosphorylation); type: biochemical; conditions: 20 μM ATP, 20 μM S6-peptide, 50 min at RT
Experimental: Enzymatic Rho Kinase (ROCK I and ROCK II) Assays.
The assay is based on ability of Rhok2 to phosphorylate a specific peptide sequence derived from its substrate—ribosomal protein S6 (amino acid residues 229-239). Rhok2 uses ATP as a donor of phosphate for the phosphorylation of the substrate, which leads to the depletion of ATP in the reaction mix. An assay kit (“Kinase-Glo”, Promega) was used to quantify enzyme activity. Using this kit, residual amounts of ATP are measured by a secondary enzymatic reaction, through which luciferase utilizes the remaining ATP to produce luminescence. Luminescent signal is directly proportional to ATP concentration and inversely proportional to Rhok2 activity.
This dose response assay was conducted in 1536 well plate format. Each concentration was tested nominally in triplicate. Protocol Summary: A 5 μL mixture of a 20 μM S6-peptide (LCB-[…]-NH2) and 20 μM ATP in Kinase buffer (50 mM Hepes pH 7.3, 10 mM MgCl2, 0.1% BSA, and 2 mM DTT) was added to the well of a plate. 20 nL of 90% DMSO/10% water containing the compound(s) to be tested (or no compound for control wells) was added. The reaction was initiated by addition of 5 μL of 8 nM ROCK-II (1-543) in Kinase buffer. […] The plate was read after 10 min incubation time at RT on the Viewlux in luminescence mode.

**Q.** How did the pIC50 (N2a cells) turn out when `CN(C)CCOc1cc(-c2cn[nH]c2)c(F)cc1NC(=O)[C@H](N)c1ccc(F)cc1` [Example 26, (R)-2-amino-N-(2-(2-(dimethylamino)ethoxy)-5-fluoro-4-(1H-pyrazol-4-yl)phenyl)-2-(4-fluorophenyl)acetamide] was run?
**A.** 7.74

**Q.** And the pIC50 (A7r5 cells)?
**A.** 6.96

**Q.** What about the pIC50 (ROCK-II (1-543)) of the same compound?
**A.** 7.72
